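96-well plates; 48 h exposure; 5 concentrations. Endpoints by linear interpolation between flanking doses. Not reached: highest tested concentration assigned. GI50: concentration for 50% inhibition of growth.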 Activity calls are given as the source filed them. Cut-off read from the data, not from the text of the source: active = GI50 up to about 1.1 µM and inactive = higher.
Assays:
Assay in all cases: NCI anticancer screen, dose series, 48 h
SNB-75 = tested on: SNB-75
SW-620 = tested on: SW-620
U-251 = tested on: U-251
MDA-N = tested on: MDA-N
MDA-MB-231 = tested on: MDA-MB-231
UO-31 = tested on: UO-31
TK-10 = tested on: TK-10
SN12C = tested on: SN12C
786-0 = tested on: 786-0
OVCAR-4 = tested on: OVCAR-4
HOP-62 = tested on: HOP-62
HT-29 = tested on: HT-29
ACHN = tested on: ACHN
MDA-MB-435 = tested on: MDA-MB-435
NCI-H522 = tested on: NCI-H522
EKVX = tested on: EKVX
HCT-15 = tested on: HCT-15
UACC-257 = tested on: UACC-257
NCI-H460 = tested on: NCI-H460
LOX IMVI = tested on: LOX IMVI

Row | Structure (SMILES) | GI50 (SNB-75) | GI50 (SW-620) | GI50 (U-251) | GI50 (MDA-N) | GI50 (MDA-MB-231) | GI50 (UO-31) | GI50 (TK-10) | GI50 (SN12C) | GI50 (786-0) | GI50 (OVCAR-4) | GI50 (HOP-62) | GI50 (HT-29) | GI50 (ACHN) | GI50 (MDA-MB-435) | GI50 (NCI-H522) | GI50 (EKVX) | GI50 (HCT-15) | GI50 (UACC-257) | GI50 (NCI-H460) | GI50 (LOX IMVI)
1 | CC(C)(Br)C(Br)CCC1(C(Br)CBr)CO1 (configuration not stated) | > 10 µM (inactive) | > 10 µM (inactive) | > 10 µM (inactive) | > 10 µM (inactive) | > 10 µM (inactive) | > 10 µM (inactive) | > 10 µM (inactive) | > 10 µM (inactive) | > 10 µM (inactive) | > 10 µM (inactive) | > 10 µM (inactive) | > 10 µM (inactive) | > 10 µM (inactive) | > 10 µM (inactive) | > 10 µM (inactive) | > 10 µM (inactive) | – | – | – | –
2 | Nc1nc(N)c2ncn(Cc3ccccc3)c2n1 | 0.0295 µM (active) | > 100 µM (inactive) | > 100 µM (inactive) | > 100 µM (inactive) | > 100 µM (inactive) | > 100 µM (inactive) | > 100 µM (inactive) | > 100 µM (inactive) | > 100 µM (inactive) | > 100 µM (inactive) | > 100 µM (inactive) | > 100 µM (inactive) | > 100 µM (inactive) | > 100 µM (inactive) | > 100 µM (inactive) | 21.8 µM (inactive) | > 100 µM | > 100 µM (inactive) | – | –
3 | C=CC(O)(CBr)CCC(Br)C(C)(C)Cl (configuration not stated) | > 10 µM (inactive) | > 10 µM (inactive) | > 10 µM (inactive) | > 10 µM (inactive) | > 10 µM (inactive) | > 10 µM (inactive) | > 10 µM (inactive) | > 10 µM (inactive) | > 10 µM (inactive) | > 10 µM (inactive) | > 10 µM (inactive) | > 10 µM (inactive) | > 10 µM (inactive) | > 10 µM (inactive) | > 10 µM (inactive) | > 10 µM (inactive) | > 10 µM | > 10 µM (inactive) | > 10 µM (inactive) | –
4 | COc1cc2c(cc1Cc1c(F)cccc1Cl)nc(-c1c(F)cccc1Cl)n2Cc1c(F)cccc1Cl | 24.7 µM (inactive) | – | 35.2 µM (inactive) | 20.6 µM (inactive) | 31.8 µM (inactive) | 48.4 µM (inactive) | > 100 µM (inactive) | 20.9 µM (inactive) | 24.4 µM (inactive) | 18.6 µM (inactive) | 36.1 µM (inactive) | 16.5 µM (inactive) | 31.8 µM (inactive) | 33.1 µM (inactive) | 16.1 µM (inactive) | 12.6 µM (inactive) | 62.7 µM | 22.5 µM (inactive) | 22.5 µM (inactive) | –
5 | O=C(Oc1ccccc1)N1c2ccccc2[C@@]23O[C@]24CCC[C@H]3C#C/C=C\C#C[C@H]14 | 8.85 µM (inactive) | 11.4 µM (inactive) | 16.7 µM (inactive) | 13.6 µM (inactive) | 12.3 µM (inactive) | 13.7 µM (inactive) | 19.9 µM (inactive) | 13.7 µM (inactive) | 10.5 µM (inactive) | 6.85 µM (inactive) | 12.9 µM (inactive) | 11.2 µM (inactive) | – | 16.1 µM (inactive) | – | 14.9 µM (inactive) | 13.2 µM | 14.9 µM (inactive) | < 0.01 µM (active) | 12.9 µM (inactive)
6 | Cn1c(COC(=O)NC2CCCCC2)c(COC(=O)NC2CCCCC2)c2ccc3cc(C=O)ccc3c21 | 18.6 µM (inactive) | > 100 µM (inactive) | 27.9 µM (inactive) | > 100 µM (inactive) | 85.1 µM (inactive) | > 100 µM (inactive) | > 100 µM (inactive) | > 100 µM (inactive) | 83.6 µM (inactive) | – | – | > 100 µM (inactive) | > 100 µM (inactive) | 45.7 µM (inactive) | – | > 100 µM (inactive) | > 100 µM | > 100 µM (inactive) | > 10 µM (inactive) | > 100 µM (inactive)
7 | CC(=O)n1[nH]c(=O)n(-c2ccccc2)c1=O | – | > 100 µM (inactive) | > 100 µM (inactive) | > 100 µM (inactive) | > 100 µM (inactive) | > 100 µM (inactive) | > 100 µM (inactive) | > 100 µM (inactive) | > 100 µM (inactive) | > 100 µM (inactive) | > 100 µM (inactive) | > 100 µM (inactive) | > 100 µM (inactive) | > 100 µM (inactive) | > 100 µM (inactive) | > 100 µM (inactive) | > 100 µM | > 100 µM (inactive) | > 100 µM (inactive) | > 100 µM (inactive)
8 | Cc1cc2nc(N3C(=O)/C(=C/c4cccc([N+](=O)[O-])c4)N=C3c3ccccc3)sc2cc1C | 6.84 µM (inactive) | 27 µM (inactive) | 22.8 µM (inactive) | 12.5 µM (inactive) | 62.4 µM (inactive) | 32.5 µM (inactive) | 71.1 µM (inactive) | 26.7 µM (inactive) | 40.3 µM (inactive) | 25.8 µM (inactive) | 35.7 µM (inactive) | 27.5 µM (inactive) | 37 µM (inactive) | 12.8 µM (inactive) | – | 18.8 µM (inactive) | 36.5 µM | 42.6 µM (inactive) | 29.2 µM (inactive) | 19.2 µM (inactive)
9 | COC(=O)c1c(C(=O)OC)c(C(c2ccccc2)c2ccccc2)n(-c2ccccc2)c1Cl | – | 7.43 µM (inactive) | 6.73 µM (inactive) | > 10 µM (inactive) | > 10 µM (inactive) | 3.81 µM (inactive) | > 10 µM (inactive) | > 10 µM (inactive) | > 10 µM (inactive) | 6.49 µM (inactive) | > 10 µM (inactive) | 4.61 µM (inactive) | 6.25 µM (inactive) | 7.16 µM (inactive) | – | 5.75 µM (inactive) | 5.5 µM | 7.14 µM (inactive) | > 10 µM (inactive) | –
10 | COc1ccc(/N=N/c2c(C)c(C#N)c(=S)n(C3OC(CO)C(O)C(O)C3O)c2-c2ccccc2)cc1 (configuration not stated) | 17.2 µM (inactive) | 26.1 µM (inactive) | 29 µM (inactive) | 37.4 µM (inactive) | 51.1 µM (inactive) | 39.4 µM (inactive) | 39.5 µM (inactive) | 32.3 µM (inactive) | 32 µM (inactive) | 31.9 µM (inactive) | 37.9 µM (inactive) | 32.5 µM (inactive) | 26 µM (inactive) | 24.5 µM (inactive) | – | – | 34 µM | 48.8 µM (inactive) | 31.3 µM (inactive) | 27.8 µM (inactive)
11 | Clc1cc2nn(C3CCCCO3)nc2cc1Cl (configuration not stated) | > 100 µM (inactive) | – | > 100 µM (inactive) | > 100 µM (inactive) | > 100 µM (inactive) | > 100 µM (inactive) | > 100 µM (inactive) | > 100 µM (inactive) | > 100 µM (inactive) | > 100 µM (inactive) | > 100 µM (inactive) | > 100 µM (inactive) | > 100 µM (inactive) | > 100 µM (inactive) | > 100 µM (inactive) | > 100 µM (inactive) | > 100 µM | > 100 µM (inactive) | > 100 µM (inactive) | –

From ChEMBL document CHEMBL1201862, “PubChem BioAssay data set” (2004)
